{
  "source": "patent US8501816B2",
  "about": "“Antitussive compositions comprising memantine” (Cerecor, Inc., priority 2010, dated 2013)",
  "key": {"[1]": {"test": "Pharmacokinetics of memantine after oral or buccal dosing in male beagle dogs (Example 2)", "assay_type": "in vivo, beagle dog", "parameters": "Cmax/Dose: unit not given beside the values", "details": "for AUC(0-inf) / AUC(0-t) / Cmax / Tmax / half-life: male, beagle, dog, plasma, 0.4 mg/kg"}, "[2]": {"details": "treated for dementia, recent review; cited from earlier work"}, "[3]": {"system": "citric acid induced cough", "test": "Citric acid induced cough in conscious guinea pigs", "details": "for ≧15 Cumulative coughs/total number of guinea pigs: 1 hour pre-citric acid challenge; for Cumulative coughs evoked by citric acid, 0.1M Citric Acid / Cumulative coughs evoked by citric acid, 0.3M Citric Acid: MMT 10 mg/kg intraperitoneal", "protocol": "Male Hartley guinea pigs (200-700 g) were studied and all experiments were first approved by the institutional Animal Care and Use Committee.\nAnimals were placed in a transparent chamber (Buxco Research Systems, Wilmington, N.C.) with a continuous flow of air and exposed to increasing concentrations of citric acid (0.01 M-0.3 M) is delivered by an ultrasonic nebulizer generating aerosol particles of 3-6 μm diameter. Coughs were counted during a 5 minute nebulization period and over the subsequent 5 minutes with the assistance of sound and pressure monitoring from the chamber. Respiratory rate and tidal volume were monitored throughout via a calibrated pressure transducer (Emka Technologies, Falls Church, Va.).\nEach of these drugs was administered orally in half-log increments (e.g. 3 mg/kg, 10 mg/kg, 30 mg/kg) in an unpaired experimental design (each animal received only 1 dose of drug). The drugs were administered 60 minutes prior to citric acid challenge, which consisted of 5 minute challenges with aerosols of increasing concentrations of citric acid (0.01-0.3M), with 5 minute intervals in between escalating doses of the tussive stimulus."}, "[4]": {"test": "Sedation and side effects observed in the cough studies"}, "[5]": {"details": "MMT 0.4 mg/kg Buccal + 3.3 mg/ml NaOH"}, "[6]": {"details": "MMT 0.4 mg/kg Buccal + 7.5 mg/ml Na2CO3"}, "[7]": {"details": "MMT 0.4 mg/kg Buccal, Control (water)"}, "[8]": {"details": "po, MMT 0.4 mg/kg Oral + 15 mg/kg NH4Cl"}, "[9]": {"details": "po, MMT 0.4 mg/kg Oral + 25 mg/kg NH4Cl"}, "[10]": {"details": "po, MMT 0.4 mg/kg Oral + 30 mg/kg NH4Cl"}, "[11]": {"details": "po, MMT 0.4 mg/kg Oral, ControlAve"}},
  "note": "“Also recorded” adds a separate entry of the source. Marks after values point to notes of the source that are not given here.",
  "data": [
    {"smiles": "CC12CC3CC(C)(C1)CC(N)(C3)C2", "note": "[Memantine, 3,5-dimethyltricyclo[3.3.1.1^3,7]decan-1-amine]", "values": [
      {"measurement": "Cmax/Dose", "setting": "[1]; MMT 0.4 mg/kg Oral + 15 mg/kg NH4Cl", "result": 6.8},
      {"measurement": "Cmax/Dose", "setting": "[1]; MMT 0.4 mg/kg Oral + 25 mg/kg NH4Cl", "result": 5.2},
      {"measurement": "Cmax/Dose", "setting": "[1]; MMT 0.4 mg/kg Oral + 30 mg/kg NH4Cl", "result": 5.4},
      {"measurement": "Cmax/Dose", "setting": "[1]; MMT 0.4 mg/kg Oral, ControlAve", "result": 5.2},
      {"measurement": "AUC(0-inf)", "setting": "[1]; [5]", "result": 112, "unit": "ng·h/mL"},
      {"measurement": "AUC(0-t)", "setting": "[1]; [5]", "result": 108, "unit": "ng·h/mL"},
      {"measurement": "Cmax", "setting": "[1]; [5]", "result": 52, "unit": "ng/mL"},
      {"measurement": "Tmax", "setting": "[1]; [5]", "result": 0.25, "unit": "h"},
      {"measurement": "half-life", "setting": "[1]; [5]", "result": 5.2, "unit": "h"},
      {"measurement": "AUC(0-t)", "setting": "[1]; [6]", "result": 179, "unit": "ng·h/mL"},
      {"measurement": "Tmax", "setting": "[1]; [6]", "result": 0.45, "unit": "h"},
      {"measurement": "half-life", "setting": "[1]; [6]", "result": 4.5, "unit": "h"},
      {"measurement": "Cmax", "setting": "[1]; [7]", "result": 23, "unit": "ng/mL"},
      {"measurement": "Tmax", "setting": "[1]; [7]", "result": 0.75, "unit": "h"},
      {"measurement": "half-life", "setting": "[1]; [7]", "result": 5.2, "unit": "h"},
      {"measurement": "AUC(0-inf)", "setting": "[1]; [8]", "result": 256, "unit": "ng·h/mL"},
      {"measurement": "AUC(0-t)", "setting": "[1]; [8]", "result": 233, "unit": "ng·h/mL"},
      {"measurement": "Cmax", "setting": "[1]; [8]", "result": 25, "unit": "ng/mL"},
      {"measurement": "Tmax", "setting": "[1]; [8]", "result": 2, "unit": "h"},
      {"measurement": "half-life", "setting": "[1]; [8]", "result": 6.7, "unit": "h"},
      {"measurement": "AUC(0-inf)", "setting": "[1]; [9]", "result": 179, "unit": "ng·h/mL"},
      {"measurement": "AUC(0-t)", "setting": "[1]; [9]", "result": 169, "unit": "ng·h/mL"},
      {"measurement": "Cmax", "setting": "[1]; [9]", "result": 20, "unit": "ng/mL"},
      {"measurement": "Tmax", "setting": "[1]; [9]", "result": 1.5, "unit": "h"},
      {"measurement": "half-life", "setting": "[1]; [9]", "result": 5.5, "unit": "h"},
      {"measurement": "AUC(0-inf)", "setting": "[1]; [10]", "result": 168, "unit": "ng·h/mL"},
      {"measurement": "AUC(0-t)", "setting": "[1]; [10]", "result": 163, "unit": "ng·h/mL"},
      {"measurement": "Cmax", "setting": "[1]; [10]", "result": 25, "unit": "ng/mL"},
      {"measurement": "Tmax", "setting": "[1]; [10]", "result": 1.1, "unit": "h"},
      {"measurement": "half-life", "setting": "[1]; [10]", "result": 4.8, "unit": "h"},
      {"measurement": "AUC(0-inf)", "setting": "[1]; [11]", "result": 210, "unit": "ng·h/mL"},
      {"measurement": "AUC(0-t)", "setting": "[1]; [11]", "result": 190, "unit": "ng·h/mL"},
      {"measurement": "Cmax", "setting": "[1]; [11]", "result": 22, "unit": "ng/mL"},
      {"measurement": "Tmax", "setting": "[1]; [11]", "result": 1.7, "unit": "h"},
      {"measurement": "half-life", "setting": "[1]; [11]", "result": 6.5, "unit": "h"},
      {"measurement": "adverse effects reported, share of those treated", "setting": "[2]", "result": "< 10", "unit": "%"},
      {"measurement": "≧15 Cumulative coughs/total number of guinea pigs", "setting": "[3]; 0.01 mg/kg po", "result": "2/5"},
      {"measurement": "≧15 Cumulative coughs/total number of guinea pigs", "setting": "[3]; 0.1 mg/kg po", "result": "1/5"},
      {"measurement": "Cumulative numbers of cough, median, citric acid 0.01M", "setting": "[3]; 1 mg/kg intraperitoneally", "result": 0.0},
      {"measurement": "Cumulative numbers of cough, median, citric acid 0.1M", "setting": "[3]; 1 mg/kg intraperitoneally", "result": 5.0},
      {"measurement": "Cumulative numbers of cough, median, citric acid 0.3M", "setting": "[3]; 1 mg/kg intraperitoneally", "result": 14.0},
      {"measurement": "≧15 Cumulative coughs/total number of guinea pigs", "setting": "[3]; 1 mg/kg po", "result": "2/7"},
      {"measurement": "Cumulative numbers of cough, median, citric acid 0.01M", "setting": "[3]; 3 mg/kg intraperitoneally", "result": 0.0},
      {"measurement": "Cumulative numbers of cough, median, citric acid 0.1M", "setting": "[3]; 3 mg/kg intraperitoneally", "result": 3.0},
      {"measurement": "Cumulative numbers of cough, median, citric acid 0.3M", "setting": "[3]; 3 mg/kg intraperitoneally", "result": 24.5},
      {"measurement": "≧15 Cumulative coughs/total number of guinea pigs", "setting": "[3]; 3 mg/kg po", "result": "0/5"},
      {"measurement": "Cumulative numbers of cough, median, citric acid 0.01M", "setting": "[3]; 10 mg/kg intraperitoneally", "result": 0.0},
      {"measurement": "Cumulative numbers of cough, median, citric acid 0.1M", "setting": "[3]; 10 mg/kg intraperitoneally", "result": 0.0},
      {"measurement": "Cumulative numbers of cough, median, citric acid 0.3M", "setting": "[3]; 10 mg/kg intraperitoneally", "result": "1.5*"},
      {"measurement": "Effect on cumulative number of coughs evoked by citric acid (0.01-0.3M) compared to controls", "setting": "[3]; 10 mg/kg intraperitoneally", "result": "significantly reduced the cumulative number of coughs; also recorded: markedly reduced the number of cumulative coughs"},
      {"measurement": "≧15 Cumulative coughs/total number of guinea pigs", "setting": "[3]; 10 mg/kg po", "result": "0/7"},
      {"measurement": "Cumulative numbers of cough, median, citric acid 0.01M", "setting": "[3]; 30 mg/kg intraperitoneally", "result": 0.0},
      {"measurement": "Cumulative numbers of cough, median, citric acid 0.1M", "setting": "[3]; 30 mg/kg intraperitoneally", "result": "0.0*"},
      {"measurement": "Cumulative numbers of cough, median, citric acid 0.3M", "setting": "[3]; 30 mg/kg intraperitoneally", "result": "1.5*"},
      {"measurement": "Effect on cumulative number of coughs evoked by citric acid (0.01-0.3M) compared to controls", "setting": "[3]; 30 mg/kg intraperitoneally", "result": "significantly reduced the cumulative number of coughs; also recorded: similarly reduced cough responses"},
      {"measurement": "≧15 Cumulative coughs/total number of guinea pigs", "setting": "[3]; 30 mg/kg po", "result": "0/4"},
      {"measurement": "Effect on cumulative coughs evoked by citric acid over vehicle", "setting": "[3]; 1 and 3 mg/kg", "result": "no significant effect"},
      {"measurement": "Cumulative coughs evoked by citric acid, 0.1M Citric Acid", "setting": "[3]; 0.5 hr pre-challenge", "result": "2 ± 2"},
      {"measurement": "Cumulative coughs evoked by citric acid, 0.3M Citric Acid", "setting": "[3]; 0.5 hr pre-challenge", "result": "5 ± 3"},
      {"measurement": "Cumulative coughs evoked by citric acid, 0.1M Citric Acid", "setting": "[3]; 1 hr pre-challenge", "result": "1 ± 1"},
      {"measurement": "Cumulative coughs evoked by citric acid, 0.3M Citric Acid", "setting": "[3]; 1 hr pre-challenge", "result": "7 ± 3"},
      {"measurement": "Cumulative coughs evoked by citric acid, 0.1M Citric Acid", "setting": "[3]; 2 hr pre-challenge", "result": "0 ± 0"},
      {"measurement": "Cumulative coughs evoked by citric acid, 0.3M Citric Acid", "setting": "[3]; 2 hr pre-challenge", "result": "7 ± 4"},
      {"measurement": "Cumulative coughs evoked by citric acid, 0.1M Citric Acid", "setting": "[3]; 4 hr pre-challenge", "result": "6 ± 5"},
      {"measurement": "Cumulative coughs evoked by citric acid, 0.3M Citric Acid", "setting": "[3]; 4 hr pre-challenge", "result": "15 ± 6"},
      {"measurement": "Levels of cough, oral compared to parenteral administration", "setting": "[3]; doses of 1 mg/kg or more (FIG. 8)", "result": "substantially reduced levels of cough compared to parenterally administered memantine"},
      {"measurement": "time to the first cough during the citric acid challenge", "setting": "[3]; memantine 10 mg/kg vs vehicle, p=0.007", "result": "shorter for vehicle than memantine 10 mg/kg"},
      {"measurement": "Effect of single agent on citric acid (0.01-0.3M) induced cough", "setting": "[3]; oral, 60 minutes prior, memantine 3, guaifenesin 100, diphenhydramine 10, benzonatate 30, ambroxol 100 mg/kg", "result": "failed to inhibit cough"},
      {"measurement": "Percentage of animals coughing ≧15 times, effect relative to controls", "setting": "[3]; orally, doses around 0.1-1 mg/kg (FIG. 7)", "result": "reduces cough relative to controls"},
      {"measurement": "Side effects / sedation", "setting": "[4]; memantine 10 mg/kg intraperitoneally", "result": "No side effects; also recorded: induced no sedation; also recorded: no sedating effects"},
      {"measurement": "Side effects", "setting": "[4]; memantine 30 mg/kg", "result": "slight behavioral changes"}
    ]}
  ]
}
